# In patent US4194006A, “Therapeutic application of acetyl-d,l-carnitine and other acyl derivatives of d,l-carnitine” (priority 1977, dated 1980):
# Read-outs that look alike come from different tables or passages of the source.
# Experiments:
# [1] = tested on: adrenaline-induced toxicity; assay: antagonism to adrenaline-induced toxicity; assay type: in vivo, male albino Swiss mice
# Method: (§1) The antagonism to adrenaline-induced toxicity was also investigated with the following results. Groups of ten male albino Swiss mice were injected with adrenaline (tartrate) intraperitoneally at progressive logarithmic doses. Other similar groups of animals were injected with 250 mg/kg of the compounds under examination via the same route, 30 minutes before adrenaline administration. Mortality was assessed by means of the Litchfield and Wilcoxon method 36 hours after adrenaline administration.
# isolated rabbit hearts [2] = assay: coronary vasodilator effect: coronary flow, isolated heart (Langendorff)
# Outline: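 Langendorff-perfused isolated rabbit hearts in oxygenated Ringer at 38.2° C; anoxia imposed until contractile force fell by 80%, then reoxygenated with or without test compound. Coronary flow, isometric contraction and ECG recorded by polygraph.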
# mice = assay: in vivo; conditions: for tolerance: LD50 intravenously in mice, compared with d,l-carnitine
# Excerpt: (§2) The tolerance of acetyl-d,l-carnitine and of the other aforementioned acyl derivatives of the formula (I), as well as their salts were investigated by comparing the LD50 obtained by administering the compounds intravenously in mice with the LD50 obtained under the same experimental conditions by intravenous injection of d,l-carnitine.
# female rats = assay: antifatigue effect: rota-rod; assay type: in vivo, rat; conditions: for responders at 300 mg/kg / responders at 400 mg/kg / responders at 600 mg/kg: Rattus norvegicus, ip, 0.25 h, read-out: percentage of animals staying on the rota-rod more than 180 seconds
# Outline: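 Female rats dosed intraperitoneally in saline, with controls given saline alone. Every 15 min after treatment animals were placed on a 6 cm rod rotating at 16 r.p.m. Value is the percentage of animals staying on the rod for more than 180 s, per session.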
# isolated rat atrium = assay: antiarrhythmic effect, isolated rat atrium method of M. Libonati and G. Segre; conditions: for Mean percent variation versus controls: excitability (-%) / Mean percent variation versus controls: frequency max (-%) / inhibition at 0.1 µg/mL / inhibition at 0.01 µg/mL / inhibition at 0.001 µg/mL: decrease; for Mean percent variation versus controls: refractory period (+%) / Mean percent variation versus controls: rheobase (+%) / activation at 0.1 µg/mL / activation at 0.01 µg/mL / activation at 0.001 µg/mL: increase; for inhibition at 0.1 µg/mL / activation at 0.1 µg/mL / inhibition at 0.01 µg/mL / activation at 0.01 µg/mL / inhibition at 0.001 µg/mL / activation at 0.001 µg/mL: Rattus norvegicus
# isolated rabbit hearts [3] = assay: cardiokinetic effect on isolated heart (Langendorff): contractile force after anoxia, positive inotropic effect; conditions: for Contractile force, Mean ± S.E.: 10 minutes from interruption of anoxic period
# Outline: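 Rabbit hearts were perfused Langendorff-style with oxygenated Ringer at 38.2 °C. Anoxia was applied until contractile force dropped by 80%, then the hearts were reoxygenated with or without compound. Contractile force was expressed as a percentage 10 min after the anoxic period ended.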
# in vivo = conditions: mouse, in vivo, iv
# Excerpt: as §2
# [4] = antagonism to adrenaline-induced toxicity; assay type: in vivo, male albino Swiss mice; conditions: mouse, in vivo, ip; adrenaline (tartrate) intraperitoneally, mice; mortality 36 hours; read-out: LD50 (fiducial limits for 95%) of adrenaline alone
# Method: as §1
# [5] = 300 mg/kg i.p., session 1 (every 15 minutes)
# [6] = 300 mg/kg i.p., session 2 (every 15 minutes)
# [7] = 300 mg/kg i.p., session 4 (every 15 minutes)
# [8] = 300 mg/kg i.p., session 5 (every 15 minutes)
# [9] = 300 mg/kg i.p., session 6 (every 15 minutes)
# [10] = 400 mg/kg i.p., session 1 (every 15 minutes)
# [11] = 400 mg/kg i.p., session 2 (every 15 minutes)
# [12] = 400 mg/kg i.p., session 3 (every 15 minutes)
# [13] = 400 mg/kg i.p., session 4 (every 15 minutes)
# [14] = 400 mg/kg i.p., session 5 (every 15 minutes)
# [15] = 400 mg/kg i.p., session 6 (every 15 minutes), * p < 0.05
# [16] = 600 mg/kg i.p., session 1 (every 15 minutes)
# [17] = 600 mg/kg i.p., session 2 (every 15 minutes)
# [18] = 600 mg/kg i.p., session 3 (every 15 minutes)
# [19] = 600 mg/kg i.p., session 4 (every 15 minutes)
# [20] = 600 mg/kg i.p., session 5 (every 15 minutes)
# [21] = 600 mg/kg i.p., session 6 (every 15 minutes), * p < 0.05
compound,measurement,setting,value
CC(O)CC(=O)OC(CC(=O)[O-])C[N+](C)(C)C (centres unmarked),antagonism to adrenaline-induced toxicity,[1]; 250 mg/kg i.p. 30 minutes before adrenaline,"antagonize adrenaline-induced toxicity to a greater degree than d,l-carnitine"
same,LD50 (fiducial limits for 95%) of adrenaline after the compound,"[1]; Adrenaline + compound, compound 250 mg/kg i.p. 30 minutes before adrenaline, mice, mortality 36 hours",172.15 (110.02-219.48) mg/kg
same,"Coronary flow, Mean ± S.E.",isolated rabbit hearts [2]; 1·10^-5 g/lt,89.19 ± 6.75%
same,"Coronary flow, Mean ± S.E.",isolated rabbit hearts [2]; 1·10^-6 g/lt,73.12 ± 6.80%
same,"Coronary flow, Mean ± S.E.",isolated rabbit hearts [2]; 5·10^-6 g/lt,76.04 ± 8.96%
same,tolerance,mice,better tolerance properties
same,Approx. LD50,"mice; intravenously in mice, compounds used as hydrochloryde forms",~745 mg/kg
same,percentage of animals staying on the rota-rod more than 180 seconds,female rats; [5],0%
same,percentage of animals staying on the rota-rod more than 180 seconds,female rats; [6],0%
same,percentage of animals staying on the rota-rod more than 180 seconds,"female rats; 300 mg/kg i.p., session 3 (every 15 minutes)",0%
same,percentage of animals staying on the rota-rod more than 180 seconds,female rats; [7],0%
same,percentage of animals staying on the rota-rod more than 180 seconds,female rats; [8],10.0%
same,percentage of animals staying on the rota-rod more than 180 seconds,female rats; [9],20.0%
same,percentage of animals staying on the rota-rod more than 180 seconds,female rats; [10],0%
same,percentage of animals staying on the rota-rod more than 180 seconds,female rats; [11],0%
same,percentage of animals staying on the rota-rod more than 180 seconds,female rats; [12],10.0%
same,percentage of animals staying on the rota-rod more than 180 seconds,female rats; [13],20.0%
same,percentage of animals staying on the rota-rod more than 180 seconds,female rats; [14],20.0%
same,percentage of animals staying on the rota-rod more than 180 seconds,female rats; [15],30.0%
same,percentage of animals staying on the rota-rod more than 180 seconds,female rats; [16],0%
same,percentage of animals staying on the rota-rod more than 180 seconds,female rats; [17],0%
same,percentage of animals staying on the rota-rod more than 180 seconds,female rats; [18],10.0%
same,percentage of animals staying on the rota-rod more than 180 seconds,female rats; [19],20.0%
same,percentage of animals staying on the rota-rod more than 180 seconds,female rats; [20],30.0%
same,percentage of animals staying on the rota-rod more than 180 seconds,female rats; [21],40.0%
same,Mean percent variation versus controls: excitability (-%),isolated rat atrium; 1·10^-4 g/lt,63.60%
same,Mean percent variation versus controls: frequency max (-%),isolated rat atrium; 1·10^-4 g/lt,42.30%
same,Mean percent variation versus controls: refractory period (+%),isolated rat atrium; 1·10^-4 g/lt,27.10%
same,Mean percent variation versus controls: rheobase (+%),isolated rat atrium; 1·10^-4 g/lt,42.12%
same,Mean percent variation versus controls: excitability (-%),isolated rat atrium; 1·10^-5 g/lt,19.12%
same,Mean percent variation versus controls: frequency max (-%),isolated rat atrium; 1·10^-5 g/lt,23.20%
same,Mean percent variation versus controls: refractory period (+%),isolated rat atrium; 1·10^-5 g/lt,20.31%
same,Mean percent variation versus controls: rheobase (+%),isolated rat atrium; 1·10^-5 g/lt,25.35%
same,Mean percent variation versus controls: excitability (-%),isolated rat atrium; 1·10^-6 g/lt,12.07%
same,Mean percent variation versus controls: frequency max (-%),isolated rat atrium; 1·10^-6 g/lt,10.02%
same,Mean percent variation versus controls: refractory period (+%),isolated rat atrium; 1·10^-6 g/lt,16.32%
same,Mean percent variation versus controls: rheobase (+%),isolated rat atrium; 1·10^-6 g/lt,9.78%
same,antiarrhythmic effect,isolated rat atrium; isolated rat atrium,most clear cut antiarrhythmic properties
same,"Contractile force, Mean ± S.E.",isolated rabbit hearts [3]; 1·10^-5 g/lt,54.3 ± 6.18%
same,"Contractile force, Mean ± S.E.",isolated rabbit hearts [3]; 1·10^-6 g/lt,30.1 ± 4.62%
same,"Contractile force, Mean ± S.E.",isolated rabbit hearts [3]; 5·10^-6 g/lt,38.6 ± 7.12%
same,positive inotropic effect,"isolated rabbit hearts [3]; equal concentrations in the perfusion fluid, Student's t test","greater positive inotropic effect than that induced by d,l-carnitine"
"CC(=O)CC(=O)OC(CC(=O)[O-])C[N+](C)(C)C (racemic) [acetoacetyl-d,l-carnitine]","Coronary flow, Mean ± S.E.",isolated rabbit hearts [2]; 1·10^-5 g/lt,89.82 ± 6.38%
same,"Coronary flow, Mean ± S.E.",isolated rabbit hearts [2]; 1·10^-6 g/lt,74.65 ± 3.54%
same,"Coronary flow, Mean ± S.E.",isolated rabbit hearts [2]; 5·10^-6 g/lt,75.70 ± 10.1%
same,LD50,in vivo,~728 mg/kg
same,tolerance,mice,better tolerance properties
same,responders at 300 mg/kg,female rats; [5],0%
same,responders at 300 mg/kg,female rats; [6],0%
same,responders at 300 mg/kg,female rats; [7],10%
same,responders at 300 mg/kg,female rats; [8],10%
same,responders at 300 mg/kg,female rats; [9],10%
same,responders at 400 mg/kg,female rats; [10],0%
same,responders at 400 mg/kg,female rats; [11],0%
same,responders at 400 mg/kg,female rats; [12],20%
same,responders at 400 mg/kg,female rats; [13],20%
same,responders at 400 mg/kg,female rats; [14],20%
same,responders at 400 mg/kg,female rats; [15],30%
same,responders at 600 mg/kg,female rats; [16],0%
same,responders at 600 mg/kg,female rats; [17],10%
same,responders at 600 mg/kg,female rats; [18],20%
same,responders at 600 mg/kg,female rats; [19],40%
same,responders at 600 mg/kg,female rats; [20],40%
same,responders at 600 mg/kg,female rats; [21],40%
same,inhibition at 0.1 µg/mL,"isolated rat atrium; 1·10^-4 g/lt, read-out: Mean percent variation versus controls: excitability (-%)",40.1%
same,inhibition at 0.1 µg/mL,"isolated rat atrium; 1·10^-4 g/lt, read-out: Mean percent variation versus controls: frequency max (-%)",25.5%
same,activation at 0.1 µg/mL,"isolated rat atrium; 1·10^-4 g/lt, read-out: Mean percent variation versus controls: refractory period (+%)",22.8%
same,activation at 0.1 µg/mL,"isolated rat atrium; 1·10^-4 g/lt, read-out: Mean percent variation versus controls: rheobase (+%)",21.9%
same,inhibition at 0.01 µg/mL,"isolated rat atrium; 1·10^-5 g/lt, read-out: Mean percent variation versus controls: excitability (-%)",27.1%
same,inhibition at 0.01 µg/mL,"isolated rat atrium; 1·10^-5 g/lt, read-out: Mean percent variation versus controls: frequency max (-%)",22.7%
same,activation at 0.01 µg/mL,"isolated rat atrium; 1·10^-5 g/lt, read-out: Mean percent variation versus controls: refractory period (+%)",14.7%
same,activation at 0.01 µg/mL,"isolated rat atrium; 1·10^-5 g/lt, read-out: Mean percent variation versus controls: rheobase (+%)",9.94%
same,inhibition at 0.001 µg/mL,"isolated rat atrium; 1·10^-6 g/lt, read-out: Mean percent variation versus controls: excitability (-%)",12.2%
same,inhibition at 0.001 µg/mL,"isolated rat atrium; 1·10^-6 g/lt, read-out: Mean percent variation versus controls: frequency max (-%)",7.34%
same,activation at 0.001 µg/mL,"isolated rat atrium; 1·10^-6 g/lt, read-out: Mean percent variation versus controls: refractory period (+%)",10.7%
same,activation at 0.001 µg/mL,"isolated rat atrium; 1·10^-6 g/lt, read-out: Mean percent variation versus controls: rheobase (+%)",3.01%
same,"Contractile force, Mean ± S.E.",isolated rabbit hearts [3]; 1·10^-5 g/lt,58.3 ± 5.08%
same,"Contractile force, Mean ± S.E.",isolated rabbit hearts [3]; 1·10^-6 g/lt,30.1 ± 3.98%
same,"Contractile force, Mean ± S.E.",isolated rabbit hearts [3]; 5·10^-6 g/lt,38.2 ± 4.66%
"CNCC(O)c1ccc(O)c(O)c1 (centres unmarked) [Adrenaline, reference compound]",LD50 at 36 h,[4],27.7 mg/kg
